How the values were obtained:
[1] = system: defense-response genes in Arabidopsis leaves; experiment: qRT-PCR of defense-response genes in Arabidopsis leaves after root treatment; assay type: in vivo, Arabidopsis thaliana; details: leaves 24 hours after root treatment with 1 μM
Experimental: FIG. 4A provides a schematic of the experimental designs for assessing activation of defense pathways and resistance to nematodes and bacteria. […] Bacterial growth was assayed 3 days post inoculation. Data are averages±s.d. (n=17). […] Arabidopsis seedlings were treated with buffer or the indicated concentrations of ascr #18 for 48 hours before inoculation with approximately 300 freshly hatched M. incognita J2 larvae. The numbers of root galls of infected plants were counted 6 weeks post inoculation. Data are averages±s.d. (n≥15). […] Arabidopsis seedlings were treated with the indicated concentrations of ascr #18 for 48 hours before transfer into 12-well plates containing Pluronic® F-127 gel with ˜200 freshly hatched M. incognita J2 larvae. Larvae touching root tips (FIG. 4D) or the whole area of roots (FIG. 4E) were counted at 6 hours post seedling transfer. Data are average±s.d. (n=12). […] Transcript levels were determined by qRT-PCR and plotted as relative fold-change compared to mock treated plants. Data are averages±s.d (n≥6). *P≤0.05; **P≤0.005; ***P≤0.0005; two-tailed t-test.
For each replicate, total RNA from Arabidopsis leaves were isolated from a pool of one leaf from each of three plants. For the seedling RNA analyses, Arabidopsis roots were collected from 30-40 seedlings for each replicates. Total RNA was isolated using Qiagen RNeasy® Plant Mini Kit (Qiagen) according to the manufacturer's instructions. DNAse treatment was done using DNA-Free™ Kit (Ambion) following the manufacturer's instructions. […]
For quantitative real-time PCR (qRT-PCR), transcripts were amplified using SYBR® Premix Ex-Taq™ (Takara) from 2.5 μL of 5×-diluted cDNA in a total 20 μL reaction using 0.1 μL of 100 μM gene-specific primers. […] The relative fold change was calculated according to the 2-ΔΔCt method (Manosalva, et al. (2015) Nat. Commun. 6:7795; Floss, et al. (2013) Proc. Natl. Acad. Sci. 110: E5025-34). […]
Next, it was determined whether differences in activation of defense signaling in wildtype and acx1acx5 plants underlie the observed differences in resistance to nematodes. […]

[2] = system: tomato root exudates; experiment: LC-MS of root exudates and growth media of ascr #18-treated tomato seedlings; assay type: in vivo, Solanum lycopersicum
Experimental: Data are average±SEM (n=6), n.d.=not detected. […] Exudates from approximately 40 seedlings were collected in distilled water and pooled. Abundances of ascarosides are shown as the peak area, as measured by LC-MS. Data are average±SEM (n=3); n.d.=not detected. FIGS. 5C and 5D show the relative abundances of ascarosides in root exudates of eight-day old tomato seedlings treated with 10 nM (FIG. 5C) or 1000 nM (FIG. 5D) ascr #18 for 6 hours. Exudates from approximately 10 seedlings were collected in distilled water and pooled. Abundances of ascarosides are shown as the peak area, as measured by LC-MS. Data are average±SEM (n=3); n.d.=not detected. FIG. 5E provides the relative abundances of ascr #10, ascr #1, and ascr #9 in the growth media of eight-day old tomato seedlings supplemented with 1 μM ascr #18. Ten-gram media samples were collected at different time points over a 48 hour period for metabolome extraction. Abundances of ascarosides are shown as the peak area, as measured by LC-MS.
To test this possibility, root-secreted metabolites of ascr #18- and mock-treated Arabidopsis were compared (FIG. 5A). For this experiment, 10-day old Arabidopsis seedlings were treated in growth media supplemented with ascr #18 for 6 hours prior to collection of exudates from roots submerged in water. […] Analogous results were obtained in experiments with tomato roots (FIG. 5C, 5D).

| SMILES | induction of MAPK-related FRK1 ([1]; acx1acx5 vs wildtype) | induction of jasmonic acid signaling genes (PDF1.2, AOS, LOX2) ([1]; wildtype vs acx1acx5) | induction of salicylic acid signaling genes (PR-1, PR-4) ([1]; wildtype vs acx1acx5) | relative abundance among root-excreted ascr #18 metabolites [2] |
| --- | --- | --- | --- | --- |
| CC1O[C@@H](O[C@@H](C)CCCCCCCCC(=O)O)C(O)C[C@H]1O (stereo in doubt) [ascr #18, (10R)-(3′R,5′R-dihydroxy-6′S-methyl-(2H)-tetrahydropyran-2-yloxy)-undecanoic acid] | slightly weaker in the mutant | to similar extents | to similar extents |  |
| C[C@H](CCC(=O)O)O[C@@H]1O[C@@H](C)[C@H](O)C[C@H]1O [ascr #9] |  |  |  | most abundant |
